Experimental data published in ChEMBL document CHEMBL1137773, “Novel lead structures for p38 MAP kinase via FieldScreen virtual screening” (J Med Chem, 2009).

Experiments:
[1] = Inhibition of p38 MAPK at 10 uM by ELISA
[2] = Inhibition of p38 MAPK by ELISA

Row | Structure (SMILES) | inhibition [1] [%] | IC50 [2] [nM]
1 | Cn1nc(CC(=O)Nc2ccc(Br)cc2)c2ccccc2c1=O | 15 | –
2 | Oc1ccc2ccccc2c1C1NN=C(c2ccccc2)S1 (stereo unspecified) | 21 | –
3 | Clc1cccc(-c2nnc3sc(COc4ccccc4)nn23)c1 | 3 | –
4 | FC(F)(F)c1nnc2sc(COc3ccccc3)nn12 | 16 | –
5 | COc1ccccc1Cc1nnc2sc(COc3ccccc3)nn12 | 77 | 740
6 | Cc1ccccc1Cc1nnc2sc(COc3ccc(F)cc3)nn12 | 36 | –
7 | Cc1ccccc1OCc1nn2c(-c3ccccc3Cl)nnc2s1 | 65 | 3510
8 | Clc1ccccc1-c1nnc2sc(COc3ccccc3)nn12 | 76 | 790
9 | NC(=O)C(c1ccc(Cl)cc1)c1ccc(C(=O)c2ccccc2)cc1 (stereo unspecified) | 26 | –
10 | Cc1ccc(CNC(=O)CN(c2cccc(Cl)c2)S(C)(=O)=O)cc1 | 1 | –
11 | CC(C)(C)c1nnc2sc(COc3ccccc3)nn12 | 61 | 3980
12 | COc1ccccc1NC1CC(=O)N(c2ccc(Cl)cc2)C1=O (stereo unspecified) | 20 | –
13 | C=CCNc1sc(C(=O)c2ccc(F)cc2)c(N)c1C#N | 46 | –
14 | COc1ccc(OCc2nnc3sc(-c4ccccc4Cl)nn23)cc1 | 34 | –
15 | COc1ccc(OCc2nn3c(-c4ccc(Cl)cc4Cl)nnc3s2)cc1 | 31 | –
16 | CCOC(=O)C(C)Sc1nc2c(c(=O)n1-c1ccc(F)cc1)SCC2 (stereo unspecified) | 23 | –
17 | COc1ccc(-c2nnc3sc(COc4ccc(F)cc4)nn23)cc1 | 31 | –
18 | Cc1occc1-c1nnc2sc(COc3ccc(F)cc3)nn12 | 21 | –
19 | Cc1nn(Cc2ccccc2)c2c1C(c1ccc(Br)cc1)C(C#N)=C(N)O2 (stereo unspecified) | 40 | –
20 | Cc1sc(NC(=O)c2ccc(Cl)cc2)c(C(=O)c2ccccc2)c1C | 31 | –
21 | O=C(c1cn(Cc2ccccc2F)c2ccccc12)C1CC1 | 23 | –
22 | Fc1ccccc1-c1nnc2sc(COc3ccccc3)nn12 | 73 | 3080
23 | CC(C)(C)c1nnc2sc(COc3ccc(F)cc3)nn12 | 53 | 4710
24 | c1ccc(OCc2nn3c(-c4ccccc4)nnc3s2)cc1 | 39 | –
25 | Cc1onc(-c2c(Cl)cccc2Cl)c1C(=O)N1CCCCC1C (stereo unspecified) | 14 | –
26 | Cc1ccccc1Cc1nnc2sc(COc3ccccc3)nn12 | 33 | –
27 | COc1cccc(OCc2nn3c(-c4ccccc4)nnc3s2)c1 | 11 | –

Row | Structure (SMILES) | inhibition [1] [%] | IC50 [2] [nM]
28 | Brc1ccccc1-c1nnc2sc(COc3ccccc3)nn12 | 80 | 1240
29 | CCC(Oc1ccccc1)c1nn2c(-c3ccoc3C)nnc2s1 (stereo unspecified) | 31 | –
30 | Clc1ccc(-c2nnc3sc(CCc4ccccc4)nn23)c(Cl)c1 | 45 | –
31 | Cc1nnc2sc(COc3ccccc3)nn12 | 18 | –
32 | CC1Cc2nc(SCC(N)=O)n(-c3ccc(F)cc3)c(=O)c2S1 (stereo unspecified) | 4 | –
33 | COc1ccccc1Cc1nnc2sc(COc3ccc(F)cc3)nn12 | 79 | 650
34 | CCc1ccc(OCC(=O)Nc2cccc3nc(C)ccc23)cc1 | 4 | –
35 | Cc1cccc(OCc2nn3c(-c4ccccc4Cl)nnc3s2)c1 | 76 | 1980
36 | Cc1ccc(NC(=O)Nc2c(Cl)cccc2Cl)c2c1CC(C)(C)O2 | 66 | –
37 | Cc1sc2ncnc(SCC(=O)c3ccc(F)cc3)c2c1C | 24 | –
38 | COc1ccc(Cc2nn3c(-c4ccccc4Cl)nnc3s2)cc1 | 83 | 440
39 | CCC(O)Cc1nc(N)c(C#N)c(-c2ccccc2OC)c1C (stereo unspecified) | 20 | –
40 | Fc1ccc(OCc2nn3c(Cc4ccccc4)nnc3s2)cc1 | 32 | –
41 | CC(C)(C)c1ccc(OCc2nn3c(Cc4ccccc4)nnc3s2)cc1 | 12 | –
42 | CCn1c(SCc2ccccc2Cl)nc2ccccc2c1=O | 28 | –
43 | CCSc1ccccc1C(=O)N1CCc2ccccc21 | 4 | –
44 | Cc1cccc(CC(=O)N(c2ccc(Br)cc2)C2C=CS(=O)(=O)C2)c1 (stereo unspecified) | 2 | –
45 | Cc1cc(-c2nnc3sc(COc4ccc(F)cc4)nn23)n(C)n1 | 22 | –
46 | Clc1ccccc1-c1nnc2sc(CCc3ccccc3)nn12 | 72 | 2550
47 | COc1ccc(OCc2nn3c(-c4ccccc4Cl)nnc3s2)cc1 | 64 | 3880
48 | c1ccc(CCc2nn3c(-c4ccncc4)nnc3s2)cc1 | 26 | –
49 | CCc1cc2c(SCC(=O)Nc3ccc(Br)cc3)ncnc2s1 | 14 | –
50 | Cc1occc1-c1nnc2sc(C(C)Oc3ccccc3)nn12 (stereo unspecified) | 30 | –
51 | CC(C)Oc1ccc(OCCSc2nc(=O)c3ccccc3[nH]2)cc1 | 23 | –
52 | Fc1ccc(-c2nnc3sc(CCc4ccccc4)nn23)cc1 | 32 | –
53 | O=C(Nc1ccc(F)cc1)c1cccc(S(=O)(=O)Nc2ccccc2)c1 | 15 | –
54 | CC(C)(Oc1ccccc1)c1nn2c(-c3ccoc3)nnc2s1 | 24 | –
